In brackets after ≈: the same amount, converted by molar mass. Like-named read-outs stand apart in the source and are kept apart here.
Key:
C. difficile 132 (RT027) [1] = system: C. difficile 132 (RT027); parameters: method as in PMID 30831407; details: Table 2; cited from earlier work
S. aureus ATCC 29213 [2] = system: S. aureus ATCC 29213; parameters: method as in ref 30 (1), 31 (2, 4), 19 (3); details: Table 2; ref 30 (1), 31 (2, 4), 19 (3); cited from earlier work
S. aureus NCTC 10442 [3] = system: S. aureus NCTC 10442; parameters: method as in ref 31 (2, 4), 19 (3); details: Table 2; MRSA; ref 31 (2, 4), 19 (3); cited from earlier work
E. faecalis ATCC 29212 [4] = system: E. faecalis ATCC 29212; parameters: method as in ref 30 (1), 31 (2, 4), 19 (3); details: Table 2; ref 30 (1), 31 (2, 4), 19 (3); cited from earlier work
S. pneumoniae ATCC 49619 [5] = system: S. pneumoniae ATCC 49619; parameters: method as in ref 30 (1), 31 (2, 4), 19 (3); details: Table 2; ref 30 (1), 31 (2, 4), 19 (3); cited from earlier work
E. coli ATCC 25922 [6] = system: E. coli ATCC 25922; parameters: method as in ref 30 (1), 31 (2, 4), 19 (3); details: Table 2; ref 30 (1), 31 (2, 4), 19 (3); cited from earlier work
HEK293 cells = system: HEK293 cells; parameters: method as in PMID 30831407; details: Table 2; cited from earlier work
S. aureus ATCC 43300 [7] = system: S. aureus ATCC 43300; parameters: method as in PMID 30831407; details: Table 2; MRSA; cited from earlier work
sheep erythrocytes = details: cited from earlier work
[8] = parameters: method as in PMID 30901686; details: cited from earlier work
C. difficile [9] = details: Figure 1; cited from earlier work
C. difficile [10] = system: C. difficile; parameters: method as in PMID 30901686; details: murine CDI model, cited from earlier work
C. difficile ATCC 700057 = assay: Primary MIC assay, C. difficile ATCC 700057; assay type: cell-based, Clostridioides difficile; details: Table 1
Procedure, shortened: (§1)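 Screening is conducted by minimum inhibitory concentration testing according to CLSI aerobic or anaerobic protocols, as appropriate to each strain.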

C. difficile 132 (RT027) [11] = assay: Primary MIC assay, C. difficile 132 (RT027); assay type: cell-based, Clostridioides difficile; details: Table 1
Procedure, shortened: as §1

S. aureus ATCC 29213 [12] = assay: Primary MIC assay, S. aureus ATCC 29213; assay type: cell-based; details: Staphylococcus aureus, ATCC29213; Table 1; read-out: MIC S. aureus ATCC 29213
Procedure, shortened: as §1

S. aureus NCTC 10442 [13] = assay: Primary MIC assay, S. aureus NCTC 10442 (MRSA); assay type: cell-based; details: Staphylococcus aureus, MRSA
Procedure, shortened: as §1

E. faecalis ATCC 29212 [14] = assay: Primary MIC assay, E. faecalis ATCC 29212; assay type: cell-based, Enterococcus faecalis; details: Enterococcus faecalis, ATCC29212; Table 1; read-out: MIC E. faecalis ATCC 29212
Procedure, shortened: as §1

S. pneumoniae ATCC 49619 [15] = assay: Primary MIC assay, S. pneumoniae ATCC 49619; assay type: cell-based, Streptococcus pneumoniae; details: Streptococcus pneumoniae, ATCC49619; Table 1; read-out: MIC S. pneumoniae ATCC 49619
Procedure, shortened: as §1

E. coli ATCC 25922 [16] = assay: Primary MIC assay, E. coli ATCC 25922; assay type: cell-based; details: Escherichia coli, ATCC25922; Table 1; read-out: MIC E. coli ATCC 25922
[17] = Cytotoxicity (CC50) assay by CO-ADD; assay type: cell-based, human; details: human, HEK293 cells (ATCC CRL-1573); Table 1; cytotoxicity on HEK293 cells, tested at ≤32 µg/mL
human erythrocytes = assay: Hemolysis assay, HC50 determination; assay type: cell-based
Method: Hemolysis assay (human erythrocytes)–HC50 determination. These were performed as described previously.

S. aureus ATCC 43300 [18] = assay: CO-ADD MIC assay, S. aureus ATCC 43300 (MRSA); assay type: cell-based; details: Staphylococcus aureus, MRSA, read-out: MIC S. aureus ATCC 43300
Procedure, shortened: (§2)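 CO-ADD whole-cell growth-inhibition MIC screening of the peptidomimetics against MRSA and Gram-negative strains.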

P. aeruginosa ATCC 27853 = assay: CO-ADD MIC assay, P. aeruginosa ATCC 27853; assay type: cell-based; details: Pseudomonas aeruginosa, ATCC27853, Table S1
Procedure, shortened: as §2

[19] = system: K. pneumoniae ATCC 700603; assay: CO-ADD MIC assay, K. pneumoniae ATCC 700603; assay type: cell-based; details: Klebsiella pneumoniae, ATCC700603, Table S1, multi-drug resistant
Procedure, shortened: as §2

A. baumannii ATCC 19606 = assay: CO-ADD MIC assay, A. baumannii ATCC 19606; assay type: cell-based; details: Acinetobacter baumannii, ATCC19606, Table S1
Procedure, shortened: as §2

E. coli ATCC 25922 [20] = assay: CO-ADD MIC assay, E. coli ATCC 25922; assay type: cell-based; details: Escherichia coli, ATCC25922, Table S1
Procedure, shortened: as §2

C. albicans ATCC 90028 = assay: CO-ADD MIC assay, C. albicans ATCC 90028; assay type: cell-based; details: Candida albicans, ATCC90028, Table S1
Procedure, shortened: (§3)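 Whole-cell growth inhibition (MIC) screening run by CO-ADD. Fluconazole served as antifungal positive control.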

[21] = system: Cryptococcus neoformans var. grubii ATCC 208821; assay: CO-ADD MIC assay, C. neoformans var. grubii ATCC 208821; assay type: cell-based
Procedure, shortened: as §3

[22] = system: C. difficile strain M7404 (RT027); assay: In vivo murine model of CDI treatment; parameters: species or system C57BL/6J mice
Method: Disease Treatment Model. These experiments were performed as previously described. Mice were humanely killed at the onset of severe disease or at the end of the experiment (day 4), as previously described.
Statistical Analysis. Statistical analysis was performed using Prism 7 (GraphPad Software). The Kaplan–Meier survival curves were assessed using a log-rank (Mantel–Cox) test. Weight loss, spore shedding, fecal consistency, and physiological appearance data were analyzed by one-way ANOVA with a post hoc Tukey’s multiple comparison test. Differences in data values were considered significant at a p value of <0.05.
Figure 3 C57BL/6J mice (n = 5 per group) were infected with 10^5 spores of C. difficile strain M7404 (RT027). Six hours post-infection and then every 12 h thereafter, mice were administered either 10% DMSO (blue) or 2.5 mg (100 mg/kg in 10% DMSO) of compound 40 (red) by oral gavage. Mice were monitored daily for survival (a) and weight loss relative to day 0, which was the day of infection (b). Fecal spore load at 1-day post-infection was determined by plating (c). Data are presented as CFU/gram feces, with each point representing a single mouse. Mouse cages were scored on day 1 post-infection for appearance (d) and mice were individually assessed for fecal consistency (e) and physiological appearance (f). Data represent the mean ±S.E.M. and statistical significance was assessed using a log-rank (Mantel–Cox) test or one-way ANOVA with a post hoc Tukey’s multiple comparison test. […]
The murine model of CDI was conducted with project collaborators at Monash University. The murine model of CDI was performed by pretreating cohorts of five mice that had been earlier infected via oral gavage with hypervirulent M7404 C. difficile spores. The infection was allowed to develop for 12 h before the trial drug was administered every 12 h for five days. The mice received a single dosage of 2.5 mg of […] (i.e.
100 mg/kg for an average 25 g mouse) administered in a solvent mixture of 10% DMSO and H2O at each 12 h dosing period. The mice body weight was checked every day. If a mouse lost 10% of its body weight in the first 24 h, then the infection was developing, and the mouse was separated from the trial and culled for ethical reasons. The whole survival rate for every drug cohort was utilized to measure effectiveness of that drug.
Other physiological parameters such as cage appearance scores and faecal consistency scores were additional measures for the efficacy of the drug in this murine trial. The experimental data of the in vivo CDI model can be found in Section 3.3.3 and the experimental procedures can be found in Section 6.4.3.
Compound 40 was selected for a murine model of CDI study because of its better antimicrobial potency against C. difficile and its better water solubility profile (Section 3.2.7). Compound 40 was prepared on a larger scale i.e. nearly 300 mg for the purpose of in vivo mouse model of CDI at Monash University. […]
In the secondary CDI mouse model trial, the solution (10% v/v DMSO/H2O) of the compound 40 was ad-ministered to mice by oral gavage.

[23] = Comparative solubility assay (solubility ratio relative to compound 1); assay type: physicochemical
Text: While the selectivity ratio could be more substantial, this is acceptable for the future development of these gastrointestinal focused compounds. […] These outcomes were confirmed with no issues during the mouse model trials with sufficient solubility in the dosage regimen. Variations on the triazole and O-naphthyl substituents could be made in future studies with the view of enhancing antibacterial activity against C. difficile.

C. difficile [24] = assay: MIC against C. difficile, strain not given; assay type: cell-based; details: Clostridioides difficile, strains of Table 1
Method: Primary screening (Gram-positive bacteria). Primary MIC assays were performed as described by the Clinical and Laboratory Standards Institute for aerobic and anaerobic bacteria. MIC values for vancomycin were within acceptable QC ranges.

## CC(C)CCOc1ccccc1-c1ccccc1OCc1cn(C[C@@H](CCCCN)NC(=O)[C@@H](CCCNC(=N)N)n2cc(C3CCCCC3)nn2)nn1 [Compound 4]
C. difficile 132 (RT027) [1]
  MIC C. difficile 132 (RT027): 8 µg/mL (≈ 10.8 µM)
S. aureus ATCC 29213 [2]
  MIC S. aureus ATCC 29213: 8 µg/mL (≈ 10.8 µM)
S. aureus NCTC 10442 [3]
  MIC S. aureus NCTC 104422: 4 µg/mL (≈ 5.39 µM)
E. faecalis ATCC 29212 [4]
  MIC E. faecalis ATCC 29212: 8 µg/mL (≈ 10.8 µM)
S. pneumoniae ATCC 49619 [5]
  MIC S. pneumoniae ATCC 49619: 4 µg/mL (≈ 5.39 µM)
E. coli ATCC 25922 [6]
  MIC E. coli ATCC 25922: 8 µg/mL (≈ 10.8 µM)
HEK293 cells
  CC50: 14.2 µg/mL (≈ 19.1 µM)
S. aureus ATCC 43300 [7]
  MIC S. aureus ATCC 43300: 4 µg/mL (≈ 5.39 µM)
Sheep erythrocytes; Table 2 HC50 column, footnote i, sheep erythrocytes
  % hemolysis at 50 µg/mL: 23% ^i
Sheep erythrocytes; in words
  in vitro hemolytic activity: low
[8]; Figure 1
  appearance in the solubility assay: homogenous suspension
[8]
  SR = solubility ratio relative to that of compound 1: 4
C. difficile [9]
  MIC against C. difficile: 4 µg/mL (≈ 5.39 µM)
C. difficile [10]; 10% DMSO group 0%
  survival rate at 24 h: 60%
C. difficile [10]
  survival rate after 48 h: 0%

## CC(C)CCc1cn(-c2c(OCC(=O)N[C@H](CCCCN)C(=O)N[C@H](CCCNC(=N)N)Cn3cc(C4CCCCC4)nn3)ccc3ccccc23)nn1.Cl.Cl [Compound 40, (R)-6-Amino-N-((R)-1-(4-cyclohexyl-1H-1,2,3-triazol-1-yl)-5-guanidinopentan-2-yl)-2-(2-((1-(4-isopentyl-1H-1,2,3-triazol-1-yl)naphthalen-2-yl)oxy)acetamido)hexanamide dihydrochloride]
C. difficile ATCC 700057; Clostridioides difficile, ATCC700057, read-out: MIC C. difficile ATCC 700057
  MIC: 8 µg/mL
C. difficile ATCC 700057
  MIC C. difficile ATCC 700057: 8 µg/mL
C. difficile 132 (RT027) [11]; Clostridioides difficile, read-out: MIC C. difficile 132 (RT027)
  MIC: 8 µg/mL
C. difficile 132 (RT027) [11]
  MIC C. difficile 132 (RT027): 8 µg/mL
S. aureus ATCC 29213 [12]
  MIC: 16 µg/mL
S. aureus NCTC 10442 [13]; MRSA / NCTC 10442 / NCTC 104422, Table 2, read-out: MIC S. aureus NCTC 104422
  MIC: 16 µg/mL
S. aureus NCTC 10442 [13]; Table 1, read-out: MIC S. aureus NCTC 10442
  MIC: 16 µg/mL
E. faecalis ATCC 29212 [14]
  MIC: 32 µg/mL
S. pneumoniae ATCC 49619 [15]
  MIC: 16 µg/mL
E. coli ATCC 25922 [16]
  MIC: 64 µg/mL
[17]
  CC50: 32 µg/mL
Human erythrocytes; Table 1, lysis of human erythrocytes
  HC50: 32 µg/mL
Human erythrocytes; Table 2, footnote says lysis of sheep erythrocytes
  HC50: 32 µg/mL
Human erythrocytes; Table S1, footnote says lysis of sheep erythrocytes
  HC50: 32 µg/mL
S. aureus ATCC 43300 [18]; Table 2
  MIC: 8 µg/mL
S. aureus ATCC 43300 [18]; Table S1, CO-ADD
  MIC: 8 µg/mL
P. aeruginosa ATCC 27853
  MIC: 32 µg/mL
[19]
  MIC: > 32 µg/mL
A. baumannii ATCC 19606
  MIC: 32 µg/mL
E. coli ATCC 25922 [20]
  MIC: 32 µg/mL
C. albicans ATCC 90028
  MIC: > 32 µg/mL
[21]; Cryptococcus neoformans, ATCC208821, Table S1
  MIC: 4 to 8 µg/mL
[21]; Table S1
  MIC C. neoformans var. grubii ATCC 208821: 4 µg/mL
[22]; 100 mg/kg oral gavage
  disease onset compared to mice treated with DMSO: delayed disease onset
[22]; 1-day post-infection
  effect on spore numbers shed in the feces: no effect
[22]; day 1 post-infection
  greater survival compared with mice treated with DMSO: 40%
  individual fecal score vs DMSO group: no significant difference
  overall cage appearance score compared to DMSO: lower
  physiological appearance score vs DMSO group: no significant difference
[22]; day 2
  survival outcome: succumbed to infection by day 2
[22]; mice, 100 mg/kg in 10% DMSO by oral gavage every 12 h, DMSO control 40%
  survival observed after 24 h: 80%
[22]; weight loss relative to day 0
  effect on mouse weight: no effect
[23]
  relative solubility ratio (relative to compound 1): 5
C. difficile [24]
  MIC: 8 µg/mL

Reference: paper PMC8388771, “Cationic Peptidomimetic Amphiphiles Having a N-Aryl- or N-Naphthyl-1,2,3-Triazole Core Structure Targeting Clostridioides (Clostridium) difficile: Synthesis, Antibacterial Evaluation, and an In Vivo C. difficile Infection Model” (Antibiotics, 2021)
